Measured values taken from patent US20250129103A1, “METHODS FOR TREATMENT OF CANCER” (Frontier Medicines Corporation, priority 2022, published 2025).
Converted amounts (≈) assume the structure as drawn.

How the values were obtained:
[1] = target: KRAS G12C (GMPPNP-loaded) and cRAF (Ras-binding domain) interaction (Homo sapiens (Human), UniProt P01116, C118S/C51S/C80L/G12C); assay: Inhibition of KRAS G12C and cRAF binding (AlphaScreen); conditions: KRAS G12C loaded with GMPPNP, cRaf RBD, 2 hours preincubation; read-out: Raf-1 RBD K-Ras IC50
How it was run: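 GMPPNP-loaded KRAS G12C in 25 mM Hepes pH 7.4, 150 mM NaCl, 5 mM MgCl2, 0.01% Triton X-100, 10 μM GMPPNP, 2% DMSO, preincubated with compound 2 h at room temperature. cRAF RBD plus AlphaScreen beads then added for 60-90 min; signal read at 570 nm.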

[2] = target: KRAS G12C (GMPPNP-loaded) and PI3Ka (Ras-binding domain) interaction (Homo sapiens (Human), UniProt P01116, C118S/C51S/C80L/G12C); assay: Inhibition of KRAS G12C and PI3Ka binding (AlphaScreen); conditions: KRAS G12C loaded with GMPPNP, PI3Ka RBD, 2 hours preincubation; read-out: PI3K RBD K-Ras IC50
How it was run: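 Biotin-AviTag Cys-light KRAS G12C (aa 1-169, C51S/C80L/C118S), GMPPNP-loaded, 1.5 nM, preincubated 2 h with compound, then His-tagged PI3Ka RBD (aa 157-300, 100 nM) plus AlphaScreen beads added for 60-90 min, RT. Buffer Hepes pH 7.4, 10 μM GMPPNP, 2% DMSO; 10-point 1:3 from 50 μM; 4-parameter IC50.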

[3] = Determination of logD (1-octanol / phosphate buffer pH 7.4); type: physicochemical; conditions: 1-octanol/phosphate buffer, pH 7.4, pH 7.4, 1-octanol/phosphate buffer; read-out: Log D, pH 7.4
How it was run: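 Shake-flask partition between 1-octanol and 100 mM phosphate buffer pH 7.4, each phase presaturated with the other overnight. Tubes shaken 1 h at 800 rpm, room temperature, then centrifuged. Both phases quantified by LCMS and logD calculated from the ratio.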

[4] = Determination of kinetic solubility (pH 7.4); type: physicochemical; conditions: phosphate buffer, pH 7.4, aqueous buffer, kinetic from dmso stock, 50 mM phosphate buffer pH 7.4, read-out: Ksol, pH 7.4
How it was run: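 Sample mixed with 50 mM phosphate buffer, pH 7.4, vortexed, then shaken 2 h at room temperature and centrifuged. Filtrate analysed by HPLC-UV and LC-MS/MS, with solubility read from peak areas against a standard calibration curve.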

Chain of KRAS G12C (GMPPNP-loaded) and PI3Ka (Ras-binding domain) interaction (P01116 other isoform, or with tags, fused parts or gaps G12C/C51S/C80L/C118S): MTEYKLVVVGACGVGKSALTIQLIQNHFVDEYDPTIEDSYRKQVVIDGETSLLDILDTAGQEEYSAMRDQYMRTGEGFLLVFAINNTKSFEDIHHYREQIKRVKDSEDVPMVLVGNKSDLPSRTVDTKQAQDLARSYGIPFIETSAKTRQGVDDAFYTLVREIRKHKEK
Chain of KRAS G12C (GMPPNP-loaded) and cRAF (Ras-binding domain) interaction (P01116 other isoform, or with tags, fused parts or gaps G12C/C51S/C80L/C118S): as above

Row | IC50 [1] | IC50 [2] | logD [3] | solubility kinetic at 2 h [4] | Compound
1 | < 10 nM | < 10 nM | 4.49 | 0.04 µg/mL (≈ 0.0515 µM) | CC(F)(F)c1noc(/C=C/C(=O)N2CCN(c3nc(OC[C@@]45CCCN4C[C@H](F)C5)nc4c(F)c(-c5cccc6cccc(Cl)c56)ncc34)C[C@@H]2CC#N)n1 [Example 14, 2-((S)-4-(7-(8-chloronaphthalen-1-yl)-8-fluoro-2-(((2R,7aS)-2-fluorotetrahydro-1H-pyrrolizin-7a(5H)-yl)methoxy)pyrido[4,3-d]pyrimidin-4-yl)-1-((E)-3-(3-(1,1-difluoroethyl)-1,2,4-oxadiazol-5-yl)acryloyl)piperazin-2-yl)acetonitrile]
2 | < 10 nM | < 10 nM | 4.32 | 0.01 µg/mL (≈ 0.0134 µM) | N#CC[C@H]1CN(c2nc(OCC34CCCN3CCC4)nc3c2CCN(c2cccc4cccc(Cl)c24)C3)CCN1C(=O)/C=C/c1nc(C(F)(F)F)no1 [Example 17, (S,E)-2-(4-(7-(8-chloronaphthalen-1-yl)-2-((hexahydro-1H-pyrrolizin-7a-yl)methoxy)-5,6,7,8-tetrahydropyrido[3,4-d]pyrimidin-4-yl)-1-(3-(3-(trifluoromethyl)-1,2,4-oxadiazol-5-yl)acryloyl)piperazin-2-yl)acetonitrile]
3 | < 10 nM | < 10 nM | 3.12 | 143 µg/mL (≈ 185 µM) | N#CC[C@H]1CN(c2nc(OC[C@@]34CCCN3C[C@H](F)C4)nc3c(F)c(-c4cccc5ccc(F)c(Cl)c45)ncc23)CCN1C(=O)/C=C/CN1C[C@H]2C[C@@H]1CO2 [Example 72, 2-((S)-1-((E)-4-((1R,4R)-2-oxa-5-azabicyclo[2.2.1]heptan-5-yl)but-2-enoyl)-4-(7-(8-chloro-7-fluoronaphthalen-1-yl)-8-fluoro-2-(((2R,7aS)-2-fluorotetrahydro-1H-pyrrolizin-7a(5H)-yl)methoxy)pyrido[4,3-d]pyrimidin-4-yl)piperazin-2-yl)acetonitrile]
4 | < 10 nM | < 10 nM | 3.7 | 74.4 µg/mL (≈ 96.7 µM) | N#CC[C@H]1CN(c2nc(OC[C@@]34CCCN3C[C@H](F)C4)nc3c(F)c(-c4cccc5cccc(Cl)c45)ncc23)CCN1C(=O)/C=C/CN1CC2CCC(C1)O2 [Example 81, 2-((2S)-1-((E)-4-(8-oxa-3-azabicyclo[3.2.1]octan-3-yl)but-2-enoyl)-4-(7-(8-chloronaphthalen-1-yl)-8-fluoro-2-(((2R,7aS)-2-fluorohexahydro-1H-pyrrolizin-7a-yl)methoxy)pyrido[4,3-d]pyrimidin-4-yl)piperazin-2-yl)acetonitrile]
5 | < 10 nM | < 10 nM | 4.2 | 3.46 µg/mL (≈ 4.35 µM) | N#CC[C@H]1CN(c2nc(OC[C@@]34CCCN3C[C@H](F)C4)nc3c(F)c(-c4cccc5ccc(F)c(Cl)c45)ncc23)CCN1C(=O)/C=C/CN1CCC(F)(F)CC1 [Example 82, 2-((S)-4-(7-(8-chloro-7-fluoronaphthalen-1-yl)-8-fluoro-2-(((2R,7aS)-2-fluorotetrahydro-1H-pyrrolizin-7a(5H)-yl)methoxy)pyrido[4,3-d]pyrimidin-4-yl)-1-((E)-4-(4,4-difluoropiperidin-1-yl)but-2-enoyl)piperazin-2-yl)acetonitrile]

Second part, the compound before the results:

Row | Compound | IC50 [1] | IC50 [2] | logD [3] | solubility kinetic at 2 h [4]
6 | N#CC[C@H]1CN(c2nc(OCC34CCCN3CCC4)nc3c2CCN(c2cccc4cccc(Cl)c24)C3)CCN1C(=O)/C=C/c1ccncn1 [Example 10, (S,E)-2-(4-(7-(8-chloronaphthalen-1-yl)-2-((hexahydro-1H-pyrrolizin-7a-yl)methoxy)-5,6,7,8-tetrahydropyrido[3,4-d]pyrimidin-4-yl)-1-(3-(pyrimidin-4-yl)acryloyl)piperazin-2-yl)acetonitrile] | < 10 nM | < 10 nM | 2.93 | 99 µg/mL (≈ 143 µM)
7 | N#CC[C@H]1CN(c2nc(OC[C@@]34CCCN3C[C@H](F)C4)nc3c(F)c(-c4cccc5ccc(F)c(Cl)c45)ncc23)CCN1C(=O)/C=C/CN1CCCOCC1 [Example 70, 2-((S)-1-((E)-4-(1,4-oxazepan-4-yl)but-2-enoyl)-4-(7-(8-chloro-7-fluoronaphthalen-1-yl)-8-fluoro-2-(((2R,7aS)-2-fluorotetrahydro-1H-pyrrolizin-7a(5H)-yl)methoxy)pyrido[4,3-d]pyrimidin-4-yl)piperazin-2-yl)acetonitrile] | < 10 nM | < 10 nM | 3.25 | 124 µg/mL (≈ 160 µM)
8 | N#CC[C@H]1CN(c2nc(OC[C@@]34CCCN3C[C@H](F)C4)nc3c(F)c(-c4cccc5ccc(F)c(Cl)c45)ncc23)CCN1C(=O)/C=C/CN1C[C@@H]2C[C@H]1CO2 [Example 71, 2-((S)-1-((E)-4-((1S,4S)-2-oxa-5-azabicyclo[2.2.1]heptan-5-yl)but-2-enoyl)-4-(7-(8-chloro-7-fluoronaphthalen-1-yl)-8-fluoro-2-(((2R,7aS)-2-fluorotetrahydro-1H-pyrrolizin-7a(5H)-yl)methoxy)pyrido[4,3-d]pyrimidin-4-yl)piperazin-2-yl)acetonitrile] | < 10 nM | < 10 nM | 2.9 | 88.9 µg/mL (≈ 115 µM)
9 | N#CC[C@H]1CN(c2nc(OC[C@@]34CCCN3C[C@H](F)C4)nc3c(F)c(-c4cccc5ccc(F)c(Cl)c45)ncc23)CCN1C(=O)/C=C/CN1CC2CC(C1)O2 [Example 77, 2-((2S)-1-((E)-4-(6-oxa-3-azabicyclo[3.1.1]heptan-3-yl)but-2-enoyl)-4-(7-(8-chloro-7-fluoronaphthalen-1-yl)-8-fluoro-2-(((2R,7aS)-2-fluorotetrahydro-1H-pyrrolizin-7a(5H)-yl)methoxy)pyrido[4,3-d]pyrimidin-4-yl)piperazin-2-yl)acetonitrile] | < 10 nM | < 10 nM | 2.92 | 116 µg/mL (≈ 151 µM)
10 | N#CC[C@H]1CN(c2nc(OC[C@@]34CCCN3C[C@H](F)C4)nc3c(F)c(-c4cccc5ccc(F)c(Cl)c45)ncc23)CCN1C(=O)/C=C/CN1CC2CCC(C1)O2 [Example 78, 2-((2S)-1-((E)-4-(8-oxa-3-azabicyclo[3.2.1]octan-3-yl)but-2-enoyl)-4-(7-(8-chloro-7-fluoronaphthalen-1-yl)-8-fluoro-2-(((2R,7aS)-2-fluorotetrahydro-1H-pyrrolizin-7a(5H)-yl)methoxy)pyrido[4,3-d]pyrimidin-4-yl)piperazin-2-yl)acetonitrile] | < 10 nM | < 10 nM | 3.64 | 85 µg/mL (≈ 108 µM)
11 | N#CC[C@H]1CN(c2nc(OC[C@@]34CCCN3C[C@H](F)C4)nc3c(F)c(-c4cccc5ccc(F)c(Cl)c45)ncc23)CCN1C(=O)/C=C/CN1[C@@H]2CC[C@H]1COC2 [Example 79, 2-((S)-1-((E)-4-((1R,5S)-3-oxa-8-azabicyclo[3.2.1]octan-8-yl)but-2-enoyl)-4-(7-(8-chloro-7-fluoronaphthalen-1-yl)-8-fluoro-2-(((2R,7aS)-2-fluorotetrahydro-1H-pyrrolizin-7a(5H)-yl)methoxy)pyrido[4,3-d]pyrimidin-4-yl)piperazin-2-yl)acetonitrile] | < 10 nM | < 10 nM | 3.53 | 155 µg/mL (≈ 197 µM)
12 | CO[C@H]1CCN(C/C=C/C(=O)N2CCN(c3nc(OC[C@@]45CCCN4C[C@H](F)C5)nc4c(F)c(-c5cccc6ccc(F)c(Cl)c56)ncc34)C[C@@H]2CC#N)C1 [Example 80, 2-((S)-4-(7-(8-chloro-7-fluoronaphthalen-1-yl)-8-fluoro-2-(((2R,7aS)-2-fluorotetrahydro-1H-pyrrolizin-7a(5H)-yl)methoxy)pyrido[4,3-d]pyrimidin-4-yl)-1-((E)-4-((S)-3-methoxypyrrolidin-1-yl)but-2-enoyl)piperazin-2-yl)acetonitrile] | < 10 nM | < 10 nM | 3.2 | 146 µg/mL (≈ 189 µM)
13 | N#CC[C@H]1CN(c2nc(OC[C@@]34CCCN3C[C@H](F)C4)nc3c(F)c(-c4cccc5ccc(F)c(F)c45)ncc23)CCN1C(=O)/C=C/CN1CCOCC1 [Example 83, 2-((S)-4-(7-(7,8-difluoronaphthalen-1-yl)-8-fluoro-2-(((2R,7aS)-2-fluorotetrahydro-1H-pyrrolizin-7a(5H)-yl)methoxy)pyrido[4,3-d]pyrimidin-4-yl)-1-((E)-4-morpholinobut-2-enoyl)piperazin-2-yl)acetonitrile] | < 10 nM | < 10 nM | 2.98 | 93.4 µg/mL (≈ 125 µM)
